This is an account of results in publication PMC3355227 (ACS Chemical Biology, 2012).

Where a SMILES comes first, the peptide text is derived from it. Where no end group is shown, it is not given here. [ ]: non-standard residue; d: D form. The star is where a group is joined. pT = C[C@@H](OP(=O)(O)O)[C@H](N)C(=O)O; Hyp = O=C(O)[C@@H]1C[C@@H](O)CN1; Butyl(4-Ph) = c1ccc(CCCC*)cc1

The target in assay [1] is HA-EGFP-Plk1 (Plk1 PBD) in mitotic 293A cell lysates (Homo sapiens, UniProt P53350). Briefly: ELISA-based PBD-binding inhibition assay. The conditions noted are these: relative comparison; oxime libraries tested as crude reaction mixtures.
Sequence of HA-EGFP-Plk1 (Plk1 PBD) in mitotic 293A cell lysates (P53350 whole entry): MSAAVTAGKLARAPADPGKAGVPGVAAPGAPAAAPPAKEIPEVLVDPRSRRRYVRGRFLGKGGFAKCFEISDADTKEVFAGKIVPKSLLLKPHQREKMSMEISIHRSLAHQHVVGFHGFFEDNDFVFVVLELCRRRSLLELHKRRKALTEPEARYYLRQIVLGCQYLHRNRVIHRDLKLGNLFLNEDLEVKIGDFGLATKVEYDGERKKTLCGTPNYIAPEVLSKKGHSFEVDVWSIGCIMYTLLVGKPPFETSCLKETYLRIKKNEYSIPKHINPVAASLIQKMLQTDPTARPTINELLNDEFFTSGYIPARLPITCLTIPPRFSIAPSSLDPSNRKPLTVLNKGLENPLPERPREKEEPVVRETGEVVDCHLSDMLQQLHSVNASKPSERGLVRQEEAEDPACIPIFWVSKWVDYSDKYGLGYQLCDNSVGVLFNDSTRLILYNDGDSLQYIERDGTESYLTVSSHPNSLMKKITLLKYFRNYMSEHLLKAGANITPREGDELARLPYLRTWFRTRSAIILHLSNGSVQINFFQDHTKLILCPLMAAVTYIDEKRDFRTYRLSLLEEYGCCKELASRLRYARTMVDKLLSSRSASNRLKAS
Another assay has as its target Flag-Plk2 (K108M) (Mus musculus, UniProt P53351, K108M). The assay can be described thus: Peptide pull-down assay from mitotic 293T cell lysates, Plk2. The conditions noted are these: bead-immobilized peptide, anti-Flag immunoblot.

Sequence of Flag-Plk2 (K108M) (P53351 whole entry K108M): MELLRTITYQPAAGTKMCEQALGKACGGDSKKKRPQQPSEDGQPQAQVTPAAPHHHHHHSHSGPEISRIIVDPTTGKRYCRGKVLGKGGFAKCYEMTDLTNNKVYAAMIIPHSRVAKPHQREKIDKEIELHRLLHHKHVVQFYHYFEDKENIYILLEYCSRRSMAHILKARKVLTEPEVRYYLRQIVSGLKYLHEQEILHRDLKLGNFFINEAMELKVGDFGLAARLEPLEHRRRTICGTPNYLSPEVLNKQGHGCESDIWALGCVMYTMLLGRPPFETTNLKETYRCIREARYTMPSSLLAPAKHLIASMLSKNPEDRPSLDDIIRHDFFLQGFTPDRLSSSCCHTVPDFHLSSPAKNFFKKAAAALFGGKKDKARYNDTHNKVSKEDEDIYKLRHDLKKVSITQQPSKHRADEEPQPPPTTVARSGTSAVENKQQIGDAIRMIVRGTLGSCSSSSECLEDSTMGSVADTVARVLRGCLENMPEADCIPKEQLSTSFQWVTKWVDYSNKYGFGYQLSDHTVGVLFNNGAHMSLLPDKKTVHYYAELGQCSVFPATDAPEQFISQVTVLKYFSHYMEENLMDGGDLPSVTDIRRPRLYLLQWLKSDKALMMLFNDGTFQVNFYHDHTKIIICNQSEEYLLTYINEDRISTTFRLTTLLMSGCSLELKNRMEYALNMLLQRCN

On to `CC(=O)N1C[C@H](OCCCCc2ccccc2)C[C@H]1C(=O)N[C@@H](CC(C)C)C(=O)N[C@@H](Cc1c[nH]cn1)C(=O)N[C@@H](C)C(=O)N[C@H](C(N)=O)[C@@H](C)OP(=O)(O)O` [7(S4A)] (Ac-[Hyp](Butyl(4-Ph))LHA[pT]-NH2; N-terminus and C-terminus assumed), for which the “relative binding affinity in ELISA-based Plk1 inhibition assay” value in assay [1] was “significant loss of affinity”.
Regarding `CC(=O)N1C[C@H](OCCCCc2ccccc2)C[C@H]1C(=O)N[C@@H](CC(C)C)C(=O)N[C@@H](Cc1c[nH]cn1)C(=O)N[C@@H](CO)C(=O)N[C@H](C(N)=O)[C@@H](C)OP(=O)(O)O` [compound 7], the entries for the “band for binding to Plk2 in pull-down” value on Flag-Plk2 (K108M) and at Flag-Plk2 (K108M) (listed as 7*) were “faint band” and “not seen”, respectively.
Regarding “8(S4A): variant of 8 with the serine residue replaced by alanine (P(Butyl(4-Ph))LHA[pT])”, in assay [1], the “relative binding affinity in ELISA-based Plk1 inhibition assay” value is “significant loss of affinity”.
